Measured values reported in patent US10590078B2, “Sodium channel blockers” (Daewoong Pharmaceutical Co., Ltd., priority 2015, dated 2020).

Molecular target: human sodium ion channel 1.7 (hNav1.7) (Homo sapiens, UniProt Q15858)
Experiment: Blocking effect against sodium ion channel Nav1.7, IonFlux16 auto patch clamp in hNav1.7 HEK293 cells
Type: cell-based
Conditions: hNav1.7 HEK293 cells; inhibition of peak current after 50 seconds treatment; eight concentrations; read-out: IC50

Sequence of human sodium ion channel 1.7 (hNav1.7) (Q15858 whole entry): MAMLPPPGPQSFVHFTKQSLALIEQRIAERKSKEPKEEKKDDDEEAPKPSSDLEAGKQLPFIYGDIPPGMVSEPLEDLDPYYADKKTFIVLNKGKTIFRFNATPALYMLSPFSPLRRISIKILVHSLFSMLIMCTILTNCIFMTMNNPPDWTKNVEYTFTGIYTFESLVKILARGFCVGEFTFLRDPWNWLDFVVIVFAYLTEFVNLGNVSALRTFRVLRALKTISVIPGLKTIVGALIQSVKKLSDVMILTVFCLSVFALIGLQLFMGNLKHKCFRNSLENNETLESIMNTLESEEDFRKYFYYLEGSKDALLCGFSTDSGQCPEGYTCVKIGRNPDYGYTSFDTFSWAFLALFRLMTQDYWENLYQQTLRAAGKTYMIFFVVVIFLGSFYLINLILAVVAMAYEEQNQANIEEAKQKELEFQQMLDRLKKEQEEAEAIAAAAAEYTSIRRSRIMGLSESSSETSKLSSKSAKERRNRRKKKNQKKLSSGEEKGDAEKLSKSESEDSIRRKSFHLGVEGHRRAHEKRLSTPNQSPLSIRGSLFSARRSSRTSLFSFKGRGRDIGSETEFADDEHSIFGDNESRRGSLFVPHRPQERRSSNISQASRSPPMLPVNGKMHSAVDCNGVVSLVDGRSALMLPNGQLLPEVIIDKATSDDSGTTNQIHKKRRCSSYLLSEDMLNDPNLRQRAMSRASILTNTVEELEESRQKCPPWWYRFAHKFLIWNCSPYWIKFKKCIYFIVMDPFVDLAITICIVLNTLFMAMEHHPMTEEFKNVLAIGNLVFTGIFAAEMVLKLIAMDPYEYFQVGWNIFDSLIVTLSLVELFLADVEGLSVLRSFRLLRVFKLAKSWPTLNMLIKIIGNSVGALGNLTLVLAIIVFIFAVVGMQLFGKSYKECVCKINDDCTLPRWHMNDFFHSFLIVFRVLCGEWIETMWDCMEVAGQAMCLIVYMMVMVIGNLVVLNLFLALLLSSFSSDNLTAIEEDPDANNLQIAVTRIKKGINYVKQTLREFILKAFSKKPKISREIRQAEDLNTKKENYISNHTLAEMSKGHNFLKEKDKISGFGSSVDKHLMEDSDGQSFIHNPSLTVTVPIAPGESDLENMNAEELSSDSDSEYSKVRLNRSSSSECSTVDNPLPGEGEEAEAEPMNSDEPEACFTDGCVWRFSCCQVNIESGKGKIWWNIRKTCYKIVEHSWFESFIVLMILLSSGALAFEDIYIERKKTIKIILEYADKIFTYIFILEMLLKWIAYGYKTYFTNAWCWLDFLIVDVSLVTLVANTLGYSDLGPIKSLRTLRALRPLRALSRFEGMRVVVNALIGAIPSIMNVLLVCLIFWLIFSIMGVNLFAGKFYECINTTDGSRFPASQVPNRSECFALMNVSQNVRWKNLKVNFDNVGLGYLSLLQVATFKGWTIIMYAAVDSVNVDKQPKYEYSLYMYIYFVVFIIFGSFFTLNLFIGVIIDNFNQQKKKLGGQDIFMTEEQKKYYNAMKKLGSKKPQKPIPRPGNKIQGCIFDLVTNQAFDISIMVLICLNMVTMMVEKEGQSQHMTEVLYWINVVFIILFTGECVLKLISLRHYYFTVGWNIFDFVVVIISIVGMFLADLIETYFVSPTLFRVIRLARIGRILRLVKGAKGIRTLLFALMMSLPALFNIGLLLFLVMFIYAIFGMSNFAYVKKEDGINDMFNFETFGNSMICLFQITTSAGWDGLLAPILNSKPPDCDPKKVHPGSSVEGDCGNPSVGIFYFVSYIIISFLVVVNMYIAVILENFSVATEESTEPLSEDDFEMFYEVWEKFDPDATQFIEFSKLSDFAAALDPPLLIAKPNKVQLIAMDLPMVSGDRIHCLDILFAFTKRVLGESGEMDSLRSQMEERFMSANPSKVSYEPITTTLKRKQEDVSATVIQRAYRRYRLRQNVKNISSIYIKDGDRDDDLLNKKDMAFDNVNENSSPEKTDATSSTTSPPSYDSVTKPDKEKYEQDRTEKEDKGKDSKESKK

SMILES	IC50 [nM]
CS(=O)(=O)NC(=O)c1cc(Cl)c(-n2nc(-c3ccc([N+](=O)[O-])cc3)c3cc(Cl)ccc32)cc1F [Example 81, 5-chloro-4-(5-chloro-3-(4-nitrophenyl)-1H-indazol-1-yl)-2-fluoro-N-(methylsulfonyl)benzamide]	240
CS(=O)(=O)NC(=O)c1cc(Cl)c(-n2nc(-c3ccc(N)cc3)c3cc(Cl)ccc32)cc1F [Example 82, 4-(3-(4-aminophenyl)-5-chloro-1H-indazol-1-yl)-5-chloro-2-fluoro-N-(methylsulfonyl)benzamide]	7910
CS(=O)(=O)NC(=O)c1cc(Cl)c(-n2nc(-c3ccc(OC(F)(F)F)cc3)c3cc(Cl)ccc32)cc1F [Example 83, 5-chloro-4-(5-chloro-3-(4-(trifluoromethoxy)phenyl)-1H-indazol-1-yl)-2-fluoro-N-(methylsulfonyl)benzamide]	80
CC(C)Cc1ccc2c(c1)c(-c1ccccc1)nn2-c1cc(F)c(C(=O)NS(C)(=O)=O)cc1Cl [Example 84, 5-chloro-2-fluoro-4-(5-isobutyl-3-phenyl-1H-indazol-1-yl)-N-(methylsulfonyl)benzamide]	110
CS(=O)(=O)NC(=O)c1cc(Cl)c(-n2nc(-c3ccc(Cl)cc3)c3cc(C4CC4)ccc32)cc1F [Example 85, 5-chloro-4-(3-(4-chlorophenyl)-5-cyclopropyl-1H-indazol-1-yl)-2-fluoro-N-(methylsulfonyl)benzamide]	600
CS(=O)(=O)NC(=O)c1cc(Cl)c(-n2nc(N3CCOCC3)c3cc(Cl)ccc32)cc1F [Example 86, 5-chloro-4-(5-chloro-3-morpholino-1H-indazol-1-yl)-2-fluoro-N-(methylsulfonyl)benzamide]	> 10000
Cn1nccc1-c1nn(-c2cc(F)c(C(=O)NS(C)(=O)=O)cc2Cl)c2ccc(Cl)cc12 [Example 87, 5-chloro-4-(5-chloro-3-(1-methyl-1H-pyrazol-5-yl)-1H-indazol-1-yl)-2-fluoro-N-(methylsulfonyl)benzamide]	> 3000
Cn1cc(-c2nn(-c3cc(F)c(C(=O)NS(C)(=O)=O)cc3Cl)c3ccc(Cl)cc23)cn1 [Example 88, 5-chloro-4-(5-chloro-3-(1-methyl-1H-pyrazol-4-yl)-1H-indazol-1-yl)-2-fluoro-N-(methylsulfonyl)benzamide]	> 10000
CS(=O)(=O)NC(=O)c1cc(Cl)c(-n2nc(-c3cn[nH]c3)c3cc(Cl)ccc32)cc1F [Example 89, 5-chloro-4-(5-chloro-3-(1H-pyrazol-4-yl)-1H-indazol-1-yl)-2-fluoro-N-(methylsulfonyl)benzamide]	> 10000
CS(=O)(=O)NC(=O)c1cc(Cl)c(-n2nc(-c3cc[nH]n3)c3cc(Cl)ccc32)cc1F [Example 90, 5-chloro-4-(5-chloro-3-(1H-pyrazol-3-yl)-1H-indazol-1-yl)-2-fluoro-N-(methylsulfonyl)benzamide]	11200
Cc1ncc(-c2nn(-c3cc(F)c(C(=O)NS(C)(=O)=O)cc3Cl)c3ccc(Cl)cc23)s1 [Example 91, 5-chloro-4-(5-chloro-3-(2-methylthiazol-5-yl)-1H-indazol-1-yl)-2-fluoro-N-(methylsulfonyl)benzamide]	1930
COc1ccccc1-c1nn(-c2ccc(C(=O)NS(C)(=O)=O)cc2C#N)c2ccc(Cl)cc12 [Example 92, 4-(5-chloro-3-(2-methoxyphenyl)-1H-indazol-1-yl)-3-cyano-N-(methylsulfonyl)benzamide]	5290
COc1ccc(-c2nn(-c3ccc(C(=O)NS(C)(=O)=O)cc3C#N)c3ccc(Cl)cc23)cc1 [Example 93, 4-(5-chloro-3-(4-methoxyphenyl)-1H-indazol-1-yl)-3-cyano-N-(methylsulfonyl)benzamide]	226
CS(=O)(=O)NC(=O)c1ccc(-n2nc(-c3ccccc3C#N)c3cc(Cl)ccc32)c(C#N)c1 [Example 94, 4-(5-chloro-3-(2-cyanophenyl)-1H-indazol-1-yl)-3-cyano-N-(methylsulfonyl)benzamide]	> 10000
CS(=O)(=O)NC(=O)c1ccc(-n2nc(-c3cccc(C#N)c3)c3cc(Cl)ccc32)c(C#N)c1 [Example 95, 4-(5-chloro-3-(3-cyanophenyl)-1H-indazol-1-yl)-3-cyano-N-(methylsulfonyl)benzamide]	> 10000
CS(=O)(=O)NC(=O)c1ccc(-n2nc(-c3ccc(C#N)cc3)c3cc(Cl)ccc32)c(C#N)c1 [Example 96, 4-(5-chloro-3-(4-cyanophenyl)-1H-indazol-1-yl)-3-cyano-N-(methylsulfonyl)benzamide]	> 10000
CS(=O)(=O)NC(=O)c1ccc(-n2nc(-c3ccccc3C(F)(F)F)c3cc(Cl)ccc32)c(C#N)c1 [Example 97, 4-(5-chloro-3-(2-(trifluoromethyl)phenyl)-1H-indazol-1-yl)-3-cyano-N-(methylsulfonyl)benzamide]	170
CS(=O)(=O)NC(=O)c1ccc(-n2nc(-c3cccc(C(F)(F)F)c3)c3cc(Cl)ccc32)c(C#N)c1 [Example 98, 4-(5-chloro-3-(3-(trifluoromethyl)phenyl)-1H-indazol-1-yl)-3-cyano-N-(methylsulfonyl)benzamide]	887

SMILES	IC50 [nM]
CS(=O)(=O)NC(=O)c1ccc(-n2nc(-c3ccc(C(F)(F)F)cc3)c3cc(Cl)ccc32)c(C#N)c1 [Example 99, 4-(5-chloro-3-(4-(trifluoromethyl)phenyl)-1H-indazol-1-yl)-3-cyano-N-(methylsulfonyl)benzamide]	1340
CS(=O)(=O)NC(=O)c1ccc(-n2nc(-c3ccc(Cl)cc3F)c3cc(Cl)ccc32)c(C#N)c1 [Example 100, 4-(5-chloro-3-(4-chloro-2-fluorophenyl)-1H-indazol-1-yl)-3-cyano-N-(methylsulfonyl)benzamide]	279
CS(=O)(=O)NC(=O)c1ccc(-n2nc(-c3ccc(F)cc3)c3cc(Cl)ccc32)c(C#N)c1 [Example 101, 4-(5-chloro-3-(4-fluorophenyl)-1H-indazol-1-yl)-3-cyano-N-(methylsulfonyl)benzamide]	3020
CS(=O)(=O)NC(=O)c1ccc(-n2nc(-c3ccccc3F)c3cc(Cl)ccc32)c(C#N)c1 [Example 102, 4-(5-chloro-3-(2-fluorophenyl)-1H-indazol-1-yl)-3-cyano-N-(methylsulfonyl)benzamide]	1210
CS(=O)(=O)NC(=O)c1ccc(-n2nc(-c3cccc(F)c3)c3cc(Cl)ccc32)c(C#N)c1 [Example 103, 4-(5-chloro-3-(3-fluorophenyl)-1H-indazol-1-yl)-3-cyano-N-(methylsulfonyl)benzamide]	2170
CS(=O)(=O)NC(=O)c1ccc(-n2nc(-c3cncc(Cl)c3)c3cc(Cl)ccc32)c(C#N)c1 [Example 104, 4-(5-chloro-3-(5-chloropyridin-3-yl)-1H-indazol-1-yl)-3-cyano-N-(methylsulfonyl)benzamide]	> 10000
CS(=O)(=O)NC(=O)c1ccc(-n2nc(-c3ccc(F)cc3F)c3cc(Cl)ccc32)c(C#N)c1 [Example 105, 4-(5-chloro-3-(2,4-difluorophenyl)-1H-indazol-1-yl)-3-cyano-N-(methylsulfonyl)benzamide]	957
COc1ncccc1-c1nn(-c2ccc(C(=O)NS(C)(=O)=O)cc2C#N)c2ccc(Cl)cc12 [Example 106, 4-(5-chloro-3-(2-methoxypyridin-3-yl)-1H-indazol-1-yl)-3-cyano-N-(methylsulfonyl)benzamide]	6020
COc1ccccc1-c1nn(-c2cc(Cl)c(C(=O)NS(C)(=O)=O)cc2F)c2ccc(Cl)cc12 [Example 107, 2-chloro-4-(5-chloro-3-(2-methoxyphenyl)-1H-indazol-1-yl)-5-fluoro-N-(methylsulfonyl)benzamide]	811
COc1ccc(-c2nn(-c3cc(Cl)c(C(=O)NS(C)(=O)=O)cc3F)c3ccc(Cl)cc23)cc1 [Example 108, 2-chloro-4-(5-chloro-3-(4-methoxyphenyl)-1H-indazol-1-yl)-5-fluoro-N-(methylsulfonyl)benzamide]	1480
CS(=O)(=O)NC(=O)c1cc(F)c(-n2nc(-c3cccc(C#N)c3)c3cc(Cl)ccc32)cc1Cl [Example 109, 2-chloro-4-(5-chloro-3-(3-cyanophenyl)-1H-indazol-1-yl)-5-fluoro-N-(methylsulfonyl)benzamide]	450
CS(=O)(=O)NC(=O)c1cc(F)c(-n2nc(-c3cccc(C(F)(F)F)c3)c3cc(Cl)ccc32)cc1Cl [Example 110, 2-chloro-4-(5-chloro-3-(3-(trifluoromethyl)phenyl)-1H-indazol-1-yl)-5-fluoro-N-(methylsulfonyl)benzamide]	267
CS(=O)(=O)NC(=O)c1cc(F)c(-n2nc(-c3ccc(C(F)(F)F)cc3)c3cc(Cl)ccc32)cc1Cl [Example 111, 2-chloro-4-(5-chloro-3-(4-(trifluoromethyl)phenyl)-1H-indazol-1-yl)-5-fluoro-N-(methylsulfonyl)benzamide]	552
CS(=O)(=O)NC(=O)c1cc(F)c(-n2nc(-c3ccc(F)cc3)c3cc(Cl)ccc32)cc1Cl [Example 112, 2-chloro-4-(5-chloro-3-(4-fluorophenyl)-1H-indazol-1-yl)-5-fluoro-N-(methylsulfonyl)benzamide]	789
CS(=O)(=O)NC(=O)c1cc(F)c(-n2nc(-c3ccccc3F)c3cc(Cl)ccc32)cc1Cl [Example 113, 2-chloro-4-(5-chloro-3-(2-fluorophenyl)-1H-indazol-1-yl)-5-fluoro-N-(methylsulfonyl)benzamide]	752
CS(=O)(=O)NC(=O)c1cc(F)c(-n2nc(-c3cccc(F)c3)c3cc(Cl)ccc32)cc1Cl [Example 114, 2-chloro-4-(5-chloro-3-(3-fluorophenyl)-1H-indazol-1-yl)-5-fluoro-N-(methylsulfonyl)benzamide]	1440
CS(=O)(=O)NC(=O)c1cc(F)c(-n2nc(-c3ccc(F)cc3F)c3cc(Cl)ccc32)cc1Cl [Example 115, 2-chloro-4-(5-chloro-3-(2,4-difluorophenyl)-1H-indazol-1-yl)-5-fluoro-N-(methylsulfonyl)benzamide]	727
COc1ncccc1-c1nn(-c2cc(Cl)c(C(=O)NS(C)(=O)=O)cc2F)c2ccc(Cl)cc12 [Example 116, 2-chloro-4-(5-chloro-3-(2-methoxypyridin-3-yl)-1H-indazol-1-yl)-5-fluoro-N-(methylsulfonyl)benzamide]	3000
